Columns and labels:
HDAC5 = test: Phospho explorer antibody microarray of LPS-treated RAW 264.7 cells: HDAC5; type: cell-based; settings: 200 μM peptide 1 hour then LPS 1 μg/mL 30 minutes, compared to cells treated with only LPS
Method: (§1) RAW 264.7 cells were starved in 0.5% FBS for 2 hours and treated with 200 μM of the peptide of SEQ ID NO: 1 for 1 hour, and then inflammation was induced at 37° C. for 30 minutes with LPS (1 μg/mL). Cell lysates of untreated cells (NT), cells treated with LPS, and cells treated with SEQ ID NO: 1 and LPS were applied to a Phospho explorer antibody microarray from Full Moon Biosystems. The phospho microarray is capable of recognizing 1318 antibodies related to 30 signaling systems. A standard-size coated glass microscope slide was coated with each antibody. =It was scanned with a GenePix 4100A scanner (Axon Instrument, Foster City, CA, USA). Data were analyzed with Genowiz 4.0™ (Ocimum Biosolutions, Hyderabad, India). The phosphorylation ratio was calculated as follows.
(§2) Formula for calculating phosphorylation ratio in each antibody: Phosphorylation ratio=(phosphorylation value of experimental group/non-phosphorylation value of experimental group)/(phosphorylation value of control group/non-phosphorylation value of control group)

[1] = tested on: high-fat diet C57BL/6 mice; test: Non-alcoholic hepatitis animal model induced by high-fat diet; type: in vivo; settings: 7 weeks, peptide 15 or 30 mg/kg
Text: In order to determine whether or not the peptide according to the present invention has the effect of treating hepatitis and inhibiting obesity in vivo, a non-alcoholic hepatitis animal model induced by a high-fat diet was used. Male C57BL/6 mice (7 weeks old) were acclimated for 1 week and a total of 20 animals were divided into four experimental groups (n=5 per group), namely, a normal diet group (control), a high-fat diet group (DIO: HFD-induced obesity), a group injected with a low dose of the peptide of SEQ ID NO: 1 (LD SEQ ID NO: 1, 15 mg/kg) and a group injected with a high dose of the peptide of SEQ ID NO: 1 (HD SEQ ID NO: 1, 30 mg/kg), and were reared with the high-fat diet or the normal diet for 7 weeks. The high-fat diet was a 60% high-fat diet (Dyets, Inc). During 7 weeks of rearing, body weight and feed intake were measured twice a week. On the 50th day after 7 weeks of rearing, the animals were sacrificed, and liver and adipose tissues were collected and sized.

NF-κB p105/p50 = test: Phospho explorer antibody microarray of LPS-treated RAW 264.7 cells: NF-κB p105/p50; type: cell-based; settings: 200 μM peptide 1 hour then LPS 1 μg/mL 30 minutes, compared to cells treated with only LPS
Method: as §1, §2

[2] = tested on: collagen-induced arthritis (CIA) rats; test: Collagen-induced arthritis animal model; type: in vivo, Wistar rats; settings: for Hind paw swelling inhibition (%): 38th day
Text: In order to determine whether or not the peptide according to the present invention is effective in treating rheumatoid arthritis in vivo, the effect of treating arthritis thereof was detected in a collagen-induced arthritis animal model. For this purpose, female Wistar rats (105-135 g, n=67) were purchased from Harlan Co. Ltd. (Indianapolis, IN, USA). All rats were bred in a pathogen-free environment and sterilized standard rat feed (Harlan Co. Ltd, USA) and water were freely fed to the rats. Animal experiments were conducted with the approval of the Institutional Animal Care and Use Committee (IACUC) of Seoul National University. Collagen-induced arthritis was induced in a known manner (Nishikawa et al., Arthritis and rheumatism. 2003; 48:2670-81).
Specifically, 500 μg of bovine collagen type II was injected along with a mixture of 0.5 mL of 0.1 M acetic acid and 0.5 mL of Freund's incomplete adjuvant into rat muscle. On the 7th day, 0.5 mL of 0.1 M acetic acid and 0.5 mL of Freund's incomplete adjuvant were further inoculated along with 250 μg of bovine collagen type II to produce collagen-induced arthritis (CIA) rats. The rats were classified into a CIA-induced group (n=10), a CIA-induced group injected with a low concentration of the peptide of SEQ ID NO: 1 (LD AIP, 15 mg/kg, n=10), a CIA-induced group injected with a high concentration of the peptide of SEQ ID NO: 1 (HD AIP, 30 mg/kg, n=10), a CIA-induced group injected with etanercept (Enbrel) (10 mg/kg, n=10), and a normal group (n=6). From 28 days after the first collagen injection, the peptide of SEQ ID NO: 1 was injected subcutaneously into the back of the neck twice a week over 4 weeks. Etanercept was injected intraperitoneally three times a week over 4 weeks. Swelling of both hind paws was measured twice using a plethysmometer (LE7500 N, IWOO Scientific Corporation, KOREA) on day 22, 29, 31, 35, 38, 42, 45, 49, 52, and 56. The plethysmometer was used after calibration to a weight of 3 mL. The measured area was marked by drawing a line, and measurement was conducted adjacent to the ankle. Hind paw swelling increase (%) and hind paw swelling inhibition (%) were calculated using the following equations.
In order to observe the degree of bone damage in the hind paw, microcomputed tomography (micro-CT) was performed using a SkyScan 1172 (SkyScan, Aartselaar, Belgium). The total volume (TV; mm^3), bone volume (BV; mm^3) and bone volume fraction (BV/TV; %) were analyzed using CTAn software. On the 57th day, rats were sacrificed and subjected to histological analysis. Both hind paws and joints were collected, fixed in 10% buffered formalin, and demineralized in 30% citrate-buffered formic acid at 4° ° C. for 3 days. Paraffin blocks were produced, sliced into sections with a thickness of 4 μm and stained with hematoxylin and eosin (H&E), and then the pathological score was evaluated with an optical microscope. The joint inflammation index was measured based on the following criteria (Shiozawa et al., J Clin Invest. 1997; 99 (6):1210-1216). 0, normal synovium; 1, synovial membrane hypertrophy and cell infiltrates; 2, pannus and cartilage erosion; 3, major erosion of cartilage and subchondral bone; and 4, loss of joint integrity and ankylosis.
The rats were sacrificed and systemic blood was collected, and the concentrations of TNF-α and IL-6 in the blood were measured with an ELISA kit (R&D, Minneapolis, MN, USA).

SMILES: C[C@@H](O)[C@H](NC(=O)[C@H](CO)NC(=O)[C@H](CS)NC(=O)[C@H](CCCCN)NC(=O)CN)C(=O)N[C@@H](CCCNC(=N)N)C(=O)NCC(=O)N[C@@H](CCCNC(=N)N)C(=O)N[C@@H](CCCCN)C(=O)N[C@@H](CS)C(=O)N[C@@H](CS)C(=O)N[C@@H](CCCNC(=N)N)C(=O)N[C@@H](CCCNC(=N)N)C(=O)N[C@@H](CCCCN)C(=O)N[C@@H](CCCCN)C(=O)O [SEQ ID NO: 1]
- Phosphorylation ratio of HDAC5 (HDAC5): 0.278
- Size of subcutaneous fat [1]: decreased
- Size of the liver [1]: decreased
- Phosphorylation ratio of NF-κB p105/p50 (NF-κB p105/p50): 0.485
- Concentration of IL-6 in blood ([2]; ELISA, high concentration of peptide or etanercept, CIA-induced group 109 pg/ml): 35.2 pg/mL
- Concentration of TNF-α in blood ([2]; ELISA, high concentration of peptide or etanercept, CIA-induced group 128 pg/ml): 40.3 pg/mL
- Bone damage in hind paw (micro-CT) ([2]; FIG. 3A): bone tissue was preserved
- Microscopic observation of joint tissues (inflammation, H&E) ([2]; FIG. 4A): decrease in inflammation in a concentration-dependent manner
- Hind paw swelling inhibition (%) ([2]; high concentration (30 mg/kg)): 35%
- Bone surface area adjusted to BV (BS/BV) ([2]; high concentration, micro-CT): low
- Bone volume (BV) ([2]; high concentration, micro-CT): high
- Bone volume/tissue volume (BV/TV) ([2]; high concentration, micro-CT): high
- Trabecular thickness (Tb.Th) ([2]; high concentration, micro-CT): high
- Hind paw swelling inhibition (%) ([2]; low concentration (15 mg/kg)): 32%
- Hind paw swelling (%) ([2]; peptide 15 or 30 mg/kg subcutaneously twice a week, etanercept 10 mg/kg intraperitoneally three times a week, 4 weeks): decrease in hind paw swelling (%) in a concentration-dependent manner
- Hind paw swelling (%) ([2]; peptide at high concentration (30 mg/kg)): decrease in hind paw swelling (%) between 38 and 49 days (P<0.05)
- Inflammation index ([2]; score 0-4, CIA-induced group 3.3±0.67): 1.5±1.17

Source: patent US12486303B2, “Use of peptide for inhibiting functions and expressions of multiple disease biomarkers” (NIBEC CO., LTD., priority 2018, dated 2025)
